Source: US4508663A, “Process for preparing thiosulfenamide derivatives of N-phosphonomethylglycinonitriles” (Monsanto Company, priority 1983, dated 1985)

What was measured:
Assay in all cases: post-emergence herbicidal activity, greenhouse
Format in all cases: in vivo
Yellow Nutsedge = conditions: Table I, 4 WAT
Description: (§1) A good grade of top soil is placed in aluminum pans having holes in the bottom and compacted to a depth of 0.95 to 1.27 cm. from the top of the pan. A predetermined number of seeds of each of several dicotyledonous and monocotyledonous annual plant species and/or vegetative propagules for the perennial plant species are placed on the soil and pressed into the soil surface. The seeds and/or vegetative propagules are covered with soil and leveled. The pans are then placed on a sand bench in the greenhouse and watered from below as needed. After the plants reach the desired age (two to three weeks), each pan except for the control pans is removed individually to a spraying chamber and sprayed by means of an atomizer operating at a positive air pressure of approximately 1.46 kg/cm^2 absolute. The atomizer contains 6 ml. of a solution or suspension of the chemical. In that 6 ml., is an amount of a cyclohexanone emulsifying agent mixture to give a spray solution or suspension which contains about 0.4% by weight of the emulsifier. The spray solution or suspension contains a sufficient amount of the candidate chemical in order to give application rates corresponding to those set forth in the tables. The spray solution is prepared by taking an aliquot of a 1.0% by weight stock solution or suspension of the candidate chemical in an organic solvent such as acetone or tetrahydrofuran or in water. The emulsifying agent employed is a mixture comprising 35 weight percent butylamine dodecylbenzene sulfonate and 65 weight percent of a tall oil ethylene oxide condensate having about 11 moles of ethylene oxide per mole of tall oil. The pans are returned to the greenhouse and watered as before and the injury to the plants as compared to the control is observed at approximately two and four weeks as indicated in the tables under WAT and the results recorded. In some instances, the two-week observations are omitted.
(§2) The post-emergence herbicidal activity index used in Table I is as follows: […]

Johnsongrass = conditions: Table I, 4 WAT
Description: as §1, §2

Velvetleaf = tested on: Velvetleaf
Description: as §1, §2

Cocklebur = tested on: Cocklebur
Description: as §1, §2

Downy Brome = tested on: Downy Brome
Description: as §1, §2

Canada Thistle = conditions: Table I, 4 WAT
Description: as §1, §2

Lambsquarters = tested on: Lambsquarters
Description: as §1, §2

Smartweed = tested on: Smartweed
Description: as §1, §2

Morningglory = tested on: Morningglory
Description: as §1, §2

Barnyardgrass = tested on: Barnyardgrass
Description: as §1, §2

Quackgrass = conditions: Table I, 4 WAT
Description: as §1, §2

Sorghum = conditions: Table II, 2 WAT
Description: as §1, §2

Wild Buckwheat = conditions: Table II, 2 WAT
Description: as §1, §2

Crabgrass = conditions: Table II, 2 WAT
Description: as §1, §2

Soybean = conditions: Table II, 2 WAT
Description: as §1, §2

Hemp Sesbania = conditions: Table II, 2 WAT
Description: as §1, §2

Panicum Spp = conditions: Table II, 2 WAT
Description: as §1, §2

Sugar Beet = conditions: Table II, 2 WAT
Description: as §1, §2

Rice = conditions: Table II, 2 WAT
Description: as §1, §2

Wheat = conditions: Table II, 2 WAT
Description: as §1, §2

In the case of `CCCCCCCCSSN(CC#N)CP(=O)(Oc1ccccc1)Oc1ccccc1` [II, Phosphonic acid, [[(cyanomethyl)(octyldithio)-amino]methyl]-, diphenyl ester], the “post-emergence herbicidal activity index” value (Yellow Nutsedge; 5.6 kg/h) is reported as 2 (50-74% control), the “post-emergence herbicidal activity index” value (Yellow Nutsedge; 11.2 kg/h) is reported as 2 (50-74% control) and the “post-emergence herbicidal activity index” value (Johnsongrass; 5.6 kg/h) is reported as 3 (75-99% control). For the same compound, the “post-emergence herbicidal activity index” value (Johnsongrass; 11.2 kg/h) was 2 (50-74% control), the “post-emergence herbicidal activity index” value (Velvetleaf; Table I, 4 WAT, 5.6 kg/h) was 1 (25-49% control) and the “post-emergence herbicidal activity index” value (Velvetleaf; Table I, 4 WAT, 11.2 kg/h) was 1 (25-49% control). The “post-emergence herbicidal activity index” value (Cocklebur; Table I, 4 WAT, 5.6 kg/h) was 2 (50-74% control), the “post-emergence herbicidal activity index” value (Cocklebur; Table I, 4 WAT, 11.2 kg/h) was 2 (50-74% control) and the “post-emergence herbicidal activity index” value (Downy Brome; Table I, 4 WAT, 5.6 kg/h) was 1 (25-49% control). For the same compound, the “post-emergence herbicidal activity index” value (Downy Brome; Table I, 4 WAT, 11.2 kg/h) was 0 (0-24% control), the “post-emergence herbicidal activity index” value (Canada Thistle; 5.6 kg/h) was 1 (25-49% control) and the “post-emergence herbicidal activity index” value (Canada Thistle; 11.2 kg/h) was 1 (25-49% control). For the same compound, the “post-emergence herbicidal activity index” value (Lambsquarters; Table I, 4 WAT, 5.6 kg/h) was 3 (75-99% control), the “post-emergence herbicidal activity index” value (Lambsquarters; Table I, 4 WAT, 11.2 kg/h) was 3 (75-99% control) and the “post-emergence herbicidal activity index” value (Smartweed; Table I, 4 WAT, 5.6 kg/h) was 0 (0-24% control). The “post-emergence herbicidal activity index” value (Smartweed; Table I, 4 WAT, 11.2 kg/h) was 1 (25-49% control), the “post-emergence herbicidal activity index” value (Morningglory; Table I, 4 WAT, 5.6 kg/h) was 2 (50-74% control) and the “post-emergence herbicidal activity index” value (Morningglory; Table I, 4 WAT, 11.2 kg/h) was 2 (50-74% control). The “post-emergence herbicidal activity index” value (Barnyardgrass; Table I, 4 WAT, 5.6 kg/h) was 1 (25-49% control), the “post-emergence herbicidal activity index” value (Barnyardgrass; Table I, 4 WAT, 11.2 kg/h) was 2 (50-74% control) and the “post-emergence herbicidal activity index” value (Quackgrass; 5.6 kg/h) was 0 (0-24% control). For the same compound, the “post-emergence herbicidal activity index” value (Quackgrass; 11.2 kg/h) was 1 (25-49% control).
For `N#CCN(CP(=O)(Oc1ccccc1)Oc1ccccc1)SSc1ccc(Cl)cc1` [XI], the “post-emergence herbicidal activity index” value (Sorghum; 1.12 kg/h) was 0 (0-24% control), the “post-emergence herbicidal activity index” value (Sorghum; 5.6 kg/h) was 1 (25-49% control) and the “post-emergence herbicidal activity index” value (Yellow Nutsedge; 5.6 kg/h) was 0 (0-24% control). The “post-emergence herbicidal activity index” value (Yellow Nutsedge; 11.2 kg/h) was 1 (25-49% control), the “post-emergence herbicidal activity index” value (Wild Buckwheat; 1.12 kg/h) was 0 (0-24% control) and the “post-emergence herbicidal activity index” value (Wild Buckwheat; 5.6 kg/h) was 3 (75-99% control). For the same compound, the “post-emergence herbicidal activity index” value (Crabgrass; 1.12 kg/h) was 0 (0-24% control), the “post-emergence herbicidal activity index” value (Crabgrass; 5.6 kg/h) was 3 (75-99% control) and the “post-emergence herbicidal activity index” value (Soybean; 1.12 kg/h) was 0 (0-24% control). For the same compound, the “post-emergence herbicidal activity index” value (Soybean; 5.6 kg/h) was 1 (25-49% control), the “post-emergence herbicidal activity index” value (Hemp Sesbania; 1.12 kg/h) was 0 (0-24% control) and the “post-emergence herbicidal activity index” value (Hemp Sesbania; 5.6 kg/h) was 1 (25-49% control). For the same compound, the “post-emergence herbicidal activity index” value (Johnsongrass; 5.6 kg/h) was 0 (0-24% control), the “post-emergence herbicidal activity index” value (Johnsongrass; 11.2 kg/h) was 2 (50-74% control) and the “post-emergence herbicidal activity index” value (Panicum Spp; 1.12 kg/h) was 0 (0-24% control). The “post-emergence herbicidal activity index” value (Panicum Spp; 5.6 kg/h) was 1 (25-49% control), the “post-emergence herbicidal activity index” value (Sugar Beet; 1.12 kg/h) was 1 (25-49% control) and the “post-emergence herbicidal activity index” value (Sugar Beet; 5.6 kg/h) was 3 (75-99% control). The “post-emergence herbicidal activity index” value (Velvetleaf; Table I, 4 WAT, 5.6 kg/h) was 0 (0-24% control), the “post-emergence herbicidal activity index” value (Velvetleaf; Table I, 4 WAT, 11.2 kg/h) was 2 (50-74% control) and the “post-emergence herbicidal activity index” value (Velvetleaf; Table II, 2 WAT, 1.12 kg/h) was 0 (0-24% control). The “post-emergence herbicidal activity index” value (Velvetleaf; Table II, 2 WAT, 5.6 kg/h) was 3 (75-99% control), the “post-emergence herbicidal activity index” value (Cocklebur; Table I, 4 WAT, 5.6 kg/h) was 0 (0-24% control) and the “post-emergence herbicidal activity index” value (Cocklebur; Table I, 4 WAT, 11.2 kg/h) was 3 (75-99% control). For the same compound, the “post-emergence herbicidal activity index” value (Cocklebur; Table II, 2 WAT, 1.12 kg/h) was 0 (0-24% control), the “post-emergence herbicidal activity index” value (Cocklebur; Table II, 2 WAT, 5.6 kg/h) was 3 (75-99% control) and the “post-emergence herbicidal activity index” value (Rice; 1.12 kg/h) was 0 (0-24% control). The “post-emergence herbicidal activity index” value (Rice; 5.6 kg/h) was 1 (25-49% control), the “post-emergence herbicidal activity index” value (Downy Brome; Table I, 4 WAT, 5.6 kg/h) was 0 (0-24% control) and the “post-emergence herbicidal activity index” value (Downy Brome; Table I, 4 WAT, 11.2 kg/h) was 1 (25-49% control). The “post-emergence herbicidal activity index” value (Downy Brome; Table II, 2 WAT, 1.12 kg/h) was 0 (0-24% control), the “post-emergence herbicidal activity index” value (Downy Brome; Table II, 2 WAT, 5.6 kg/h) was 1 (25-49% control) and the “post-emergence herbicidal activity index” value (Wheat; 1.12 kg/h) was 0 (0-24% control). The “post-emergence herbicidal activity index” value (Wheat; 5.6 kg/h) was 2 (50-74% control), the “post-emergence herbicidal activity index” value (Lambsquarters; Table I, 4 WAT, 5.6 kg/h) was 0 (0-24% control) and the “post-emergence herbicidal activity index” value (Lambsquarters; Table I, 4 WAT, 11.2 kg/h) was 4 (100% control). For the same compound, the “post-emergence herbicidal activity index” value (Lambsquarters; Table II, 2 WAT, 1.12 kg/h) was 0 (0-24% control), the “post-emergence herbicidal activity index” value (Lambsquarters; Table II, 2 WAT, 5.6 kg/h) was 3 (75-99% control) and the “post-emergence herbicidal activity index” value (Smartweed; Table I, 4 WAT, 5.6 kg/h) was 0 (0-24% control). The “post-emergence herbicidal activity index” value (Smartweed; Table I, 4 WAT, 11.2 kg/h) was 2 (50-74% control), the “post-emergence herbicidal activity index” value (Smartweed; Table II, 2 WAT, 1.12 kg/h) was 0 (0-24% control) and the “post-emergence herbicidal activity index” value (Smartweed; Table II, 2 WAT, 5.6 kg/h) was 1 (25-49% control). For the same compound, the “post-emergence herbicidal activity index” value (Morningglory; Table I, 4 WAT, 5.6 kg/h) was 0 (0-24% control), the “post-emergence herbicidal activity index” value (Morningglory; Table I, 4 WAT, 11.2 kg/h) was 1 (25-49% control) and the “post-emergence herbicidal activity index” value (Morningglory; Table II, 2 WAT, 1.12 kg/h) was 0 (0-24% control). The “post-emergence herbicidal activity index” value (Morningglory; Table II, 2 WAT, 5.6 kg/h) was 1 (25-49% control), the “post-emergence herbicidal activity index” value (Barnyardgrass; Table I, 4 WAT, 5.6 kg/h) was 0 (0-24% control) and the “post-emergence herbicidal activity index” value (Barnyardgrass; Table I, 4 WAT, 11.2 kg/h) was 3 (75-99% control). The “post-emergence herbicidal activity index” value (Barnyardgrass; Table II, 2 WAT, 1.12 kg/h) was 0 (0-24% control), the “post-emergence herbicidal activity index” value (Barnyardgrass; Table II, 2 WAT, 5.6 kg/h) was 1 (25-49% control) and the “post-emergence herbicidal activity index” value (Quackgrass; 5.6 kg/h) was 0 (0-24% control). The “post-emergence herbicidal activity index” value (Quackgrass; 11.2 kg/h) was 2 (50-74% control).
For `COc1ccc(SSN(CC#N)CP(=O)(Oc2ccccc2)Oc2ccccc2)cc1` [III, Phosphonic acid, [[(cyanomethyl)[(4-methoxyphenyl)-dithio]amino]methyl]-, diphenyl ester], the “post-emergence herbicidal activity index” value (Yellow Nutsedge; 5.6 kg/h) was 1 (25-49% control), the “post-emergence herbicidal activity index” value (Yellow Nutsedge; 11.2 kg/h) was 2 (50-74% control) and the “post-emergence herbicidal activity index” value (Johnsongrass; 5.6 kg/h) was 2 (50-74% control). For the same compound, the “post-emergence herbicidal activity index” value (Johnsongrass; 11.2 kg/h) was 2 (50-74% control), the “post-emergence herbicidal activity index” value (Velvetleaf; Table I, 4 WAT, 5.6 kg/h) was 1 (25-49% control) and the “post-emergence herbicidal activity index” value (Velvetleaf; Table I, 4 WAT, 11.2 kg/h) was 1 (25-49% control). The “post-emergence herbicidal activity index” value (Cocklebur; Table I, 4 WAT, 5.6 kg/h) was 1 (25-49% control), the “post-emergence herbicidal activity index” value (Cocklebur; Table I, 4 WAT, 11.2 kg/h) was 2 (50-74% control) and the “post-emergence herbicidal activity index” value (Downy Brome; Table I, 4 WAT, 5.6 kg/h) was 0 (0-24% control). For the same compound, the “post-emergence herbicidal activity index” value (Downy Brome; Table I, 4 WAT, 11.2 kg/h) was 2 (50-74% control), the “post-emergence herbicidal activity index” value (Canada Thistle; 5.6 kg/h) was 2 (50-74% control) and the “post-emergence herbicidal activity index” value (Canada Thistle; 11.2 kg/h) was 2 (50-74% control). For the same compound, the “post-emergence herbicidal activity index” value (Lambsquarters; Table I, 4 WAT, 5.6 kg/h) was 3 (75-99% control), the “post-emergence herbicidal activity index” value (Lambsquarters; Table I, 4 WAT, 11.2 kg/h) was 4 (100% control) and the “post-emergence herbicidal activity index” value (Smartweed; Table I, 4 WAT, 11.2 kg/h) was 0 (0-24% control). The “post-emergence herbicidal activity index” value (Morningglory; Table I, 4 WAT, 5.6 kg/h) was 1 (25-49% control), the “post-emergence herbicidal activity index” value (Morningglory; Table I, 4 WAT, 11.2 kg/h) was 2 (50-74% control) and the “post-emergence herbicidal activity index” value (Barnyardgrass; Table I, 4 WAT, 5.6 kg/h) was 2 (50-74% control). The “post-emergence herbicidal activity index” value (Barnyardgrass; Table I, 4 WAT, 11.2 kg/h) was 2 (50-74% control), the “post-emergence herbicidal activity index” value (Quackgrass; 5.6 kg/h) was 0 (0-24% control) and the “post-emergence herbicidal activity index” value (Quackgrass; 11.2 kg/h) was 1 (25-49% control).
